These results are taken from article PMC12365235, “Molecular mechanisms of thiazide-like diuretics-mediated inhibition of the human Na-Cl cotransporter” (Nature Communications, 2025).

The term IC50 denotes the midpoint of a concentration-inhibition curve. Higher therefore signals weaker potency.

In the test the target is T1, hNCC(G230A) (Homo sapiens, UniProt P55017, G230A).
T1 construct: expressed in transfected cells
T1 sequence (P55017 1-1021 G230A): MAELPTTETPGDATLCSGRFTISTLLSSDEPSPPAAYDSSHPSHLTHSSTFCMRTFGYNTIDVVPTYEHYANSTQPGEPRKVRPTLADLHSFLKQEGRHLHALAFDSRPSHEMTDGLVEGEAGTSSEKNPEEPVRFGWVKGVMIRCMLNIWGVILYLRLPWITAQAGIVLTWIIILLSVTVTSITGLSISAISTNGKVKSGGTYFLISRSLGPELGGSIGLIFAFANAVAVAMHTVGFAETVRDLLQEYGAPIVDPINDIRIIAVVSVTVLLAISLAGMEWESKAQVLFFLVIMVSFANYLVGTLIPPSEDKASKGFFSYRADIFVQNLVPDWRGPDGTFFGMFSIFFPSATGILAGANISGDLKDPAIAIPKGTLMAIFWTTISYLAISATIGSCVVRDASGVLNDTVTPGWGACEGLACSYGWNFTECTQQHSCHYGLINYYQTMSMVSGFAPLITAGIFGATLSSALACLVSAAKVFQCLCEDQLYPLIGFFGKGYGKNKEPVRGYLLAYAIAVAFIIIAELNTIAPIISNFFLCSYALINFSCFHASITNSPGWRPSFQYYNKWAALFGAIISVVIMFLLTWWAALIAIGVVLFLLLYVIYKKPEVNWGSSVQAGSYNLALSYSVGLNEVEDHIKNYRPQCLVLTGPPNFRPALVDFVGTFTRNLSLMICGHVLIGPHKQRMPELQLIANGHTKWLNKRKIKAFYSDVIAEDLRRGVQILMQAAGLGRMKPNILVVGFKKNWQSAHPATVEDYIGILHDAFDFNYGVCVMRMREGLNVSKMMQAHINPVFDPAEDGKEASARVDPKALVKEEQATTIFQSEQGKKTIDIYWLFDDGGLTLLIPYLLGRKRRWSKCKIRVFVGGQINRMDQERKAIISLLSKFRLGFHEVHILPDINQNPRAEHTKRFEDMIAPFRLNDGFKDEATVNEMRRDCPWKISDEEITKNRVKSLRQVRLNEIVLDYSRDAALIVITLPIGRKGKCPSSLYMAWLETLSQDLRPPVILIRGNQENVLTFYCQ
The experiment in a line: 125I- uptake assay, hNCC(G230A) variant. The following applies: for fold less sensitive than hNCC(WT) / IC50: G230A substitution; for IC50: iodide uptake. It counts as cell-based. How it is done:
HEK293S cell lines, cultured in 293 Freestyle medium (Life Technologies; plus 10% fetal bovine serum), stably expressing hNCC and its variants were generated following published protocols. Cells were transfected using Lipofectamine 3000 (Invitrogen) with a pSBbi-RP-based plasmid containing hNCC or its variants and the SB100X vector. Puromycin (2 μg/mL; Gemini Bio-Products) was used for selection of stable cell lines.
To prepare for the uptake experiment, cells were plated at 0.5 × 10^6 cells/well in 24-well plates one day in advance. To activate NCC, cells were treated with a chloride-free hypotonic solution composed of 67.5 mM sodium-, 2.5 mM potassium-, 0.25 mM magnesium-, and 0.25 mM calcium-gluconate, as well as 7.5 mM HEPES pH 7.4 (buffered using Tris) at 37 °C for 10 min[72]. After the activation step, the experiments were carried out at room temperature. Ten minutes before the start of ^125I^− uptake, 70 μM Bumetanide (Thermo Scientific Chemicals) and 100 μM 4,4′-diisothiocyanatostilbene-2,2′-disulfonic acid (DIDS; Sigma) were added to suppress background iodide uptake activity. Indicated thiazide diuretics were also added to the indicated concentrations 10 min before the start of ^125I^− uptake. The original buffer was switched to an uptake buffer composed of 135 mM Na-gluconate, 5 mM K-gluconate, 1 mM Mg-gluconate, 1 mM Ca-gluconate, 70 μM bumetanide, 100 μM DIDS, 1 mM NaI, 0.25 μCi/ml Na^125I (American Radiolabeled Chemicals, Inc.), and 15 mM HEPES pH 7.4 (buffered using Tris), in the presence or absence of thiazide diuretics to initiate ^125I^− uptake. The ^125I^− uptake process lasted 1 h and was stopped by two rapid washes using ice-cold 110 mM MgCl2. Cells lysed using 1% sodium dodecyl sulfate (SDS) were analyzed by scintillation counting.
To calculate the fold change of the half-maximal inhibitory concentration (IC50) between hNCC(WT) and different hNCC variants, individual dose-response curves were normalized first using the smallest mean and the value of the lowest concentration as 0% and 100%, respectively. The normalized data were then fitted using the “EC50 shift” nonlinear regression in GraphPad Prism 10 with the shared EC50Control assigned to be the IC50 of hNCC(WT). The following constraints were used in the EC50 shift analysis. The EC50Control was set to be shared across all curves under analysis and constrained to be greater than 0. The EC50Ratio was constrained to be greater than 0. The bottom, top, and HillSlope were constrained to be 0, 100, and −1, respectively. For Fig. 1f, g and Supplementary Fig. 2d, GraphPad Prism 10 was used to perform curve fitting and IC50 calculation for normalized data using y = 100/(1 + (x/IC50)).

Turning to `NS(=O)(=O)c1cc(C2(O)NC(=O)c3ccccc32)ccc1Cl` (stereo not shown) [chlorthalidone], the “fold less sensitive than hNCC(WT)” value is “approximately 40 fold” and the IC50 came to 930 nM.

For the molecule `CC1Cc2ccccc2N1NC(=O)c1ccc(Cl)c(S(N)(=O)=O)c1` (stereo not shown) [indapamide], the “fold less sensitive than hNCC(WT)” value is ~ 2 fold and the IC50 was determined as 29 nM.

Consider `CN1C(CSCC(F)(F)F)Nc2cc(Cl)c(S(N)(=O)=O)cc2S1(=O)=O` (stereo not shown) [polythiazide], for which the “fold less sensitive than hNCC(WT)” value is recorded as ~ 2 fold and the IC50 was 1.4 nM. The “inhibition of transport activity” value (100 μM polythiazide, G230A) was “fully inhibited”.
